One assay has as its target T1, recombinant human AKR1C3 (Homo sapiens, UniProt P42330).
T1 construct: purchased Abcam (Cambridge, MA)
T1 sequence (P42330 1-323): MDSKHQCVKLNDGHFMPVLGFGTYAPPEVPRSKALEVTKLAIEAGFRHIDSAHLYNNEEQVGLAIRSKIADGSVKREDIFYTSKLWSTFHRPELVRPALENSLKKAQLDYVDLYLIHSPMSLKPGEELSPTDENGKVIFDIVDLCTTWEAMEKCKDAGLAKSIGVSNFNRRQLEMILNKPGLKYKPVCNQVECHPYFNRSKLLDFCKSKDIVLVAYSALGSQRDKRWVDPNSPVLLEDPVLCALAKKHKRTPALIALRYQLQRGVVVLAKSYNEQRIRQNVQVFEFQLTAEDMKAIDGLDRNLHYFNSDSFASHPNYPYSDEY
Briefly: Kinetic analysis of AKR1C3 towards various substrates (NADPH absorbance 340 nm). It counts as biochemical. Conditions: substrate of AKR1C3, 25° C., triplicate. The protocol: The reaction was incubated at 25° C. and terminated at various time points by adding acetonitrile and methanol (at a ratio of 9 to 1) and subjected for LC-MS/MS analysis. For enzyme kinetic analysis, the activity was determined with a SpectraMax M2^e spectrophotometer (Molecular Devices, LLC, San Jose, CA) by measuring the decrease in absorbance of the NADPH at 340 nm (E=6270 M^−1 cm^−1). After the initiation of the reaction by addition of substrates, the reactions were monitored at 30 s intervals at 25° C. The non-substrate reaction rate was also monitored as background and its slope was used to determine the initial velocity of the reaction. The kinetic data reported were the average of triplicate measurements.

In assay [1] the test system is H460 cells. Nature of the assay: Comet assay for DNA cross-linking. It is filed as cell-based, human. The protocol: After seeding cells for 24 hours, the test articles were added at the indicated concentrations and incubated for 2 hours. Cells were washed twice to remove compound completely. 20 μmol/L of bleomycin was added and incubated for 1 hour under air to induce DNA strand breaks following 2 h cell resting. After washing twice with PBS, comet assay was conducted using a single-cell electrophoresis system from Trevigen (Gaithersburg, MD). The data were analyzed using Comet Assay IV software from Perceptive Instruments (29).
To evaluate whether 3424 cross-linked DNA, a direct biochemical assay for DNA cross-linking, the single-cell electrophoresis-based comet assay was employed using H460 cells. In this assay, the racemic mixture, 2870, was used. […] Bleomycin was used to induce DNA strand breaks which was evident by increased tail moment to 35. 2870-induced DNA cross-linking was tested using three concentrations under identical conditions that were used for bleomycin. Compound 2870-induced concentration-dependent DNA-crosslinking was evident by a decreased tail moment from 36 to 1.6.

For a further assay, the system named is A498 xenograft. The protocol: (§1) Death and observed clinical signs were recorded on the basis of the numbers of animals within each subset.
Assay [2] concerns H460 cells. Briefly: Cytotoxicity in H460 cells in the absence or presence of AKR1C3 inhibitor 3021. Conditions: Homo sapiens, NCI-H460, 2 h, read-out: IC50 (cytotoxicity).
Experimental: Exponentially growing cells were seeded 24 hours before the addition of test compounds. After addition of test compounds, the plates were incubated for the indicated hours at 37° C. in a standard tissue culture incubator. At the end of the experiment, the viable cells were detected using either a CellTiter Glo (CTG) assay kit or AlamarBlue^(28,29). […] For 3021 experiments, cells were pretreated with 3 μM of 3021 for 2 h prior to compound treatment under air. IC50 was calculated as described above.
Assay [3] has as its system H460 subcutaneous xenograft. It counts as in vivo, mice. As to conditions: paclitaxel 15 mg/kg IV BIW×4. The procedure:
(§2) In vivo anti-tumor activity of 3424 was evaluated using GFP-expressing cancer cell lines in an orthotopic liver cancer model (HepG2) and a subcutaneous lung cancer model (H460) CDX models at AntiCancer, Inc (Beijing, China). Female athymic nude mice (6 weeks; BALB/c-nu, Beijing HFK Bioscience Co., Ltd., Beijing, China) were used in the studies. Each mouse was implanted with a HepG2-GFP tumor chunk (˜1 mm^3 in diameter) in the right lobe of the liver for tumor development or inoculated subcutaneously with H460-GFP tumor chunk (˜1 mm^3 in diameter). About 3-10 days later, whole mouse body scan was performed using FluorVivo Model-100 fluorescence imager (INDEC Biosystems, Inc., Los Altos, CA). Mice with similar fluorescent areas were selected and randomly grouped. Both cell lines expressed high level of AKR1C3. Prodrug 3424 was dosed intravenously (IV) at 1.25, 2.5 mg/kg or 5 mg/kg Q7D×2 for the HepG2 orthotopic model or at 0.625, 1.25 or 2.5 mg/kg for the H460 xenograft model with a regimen of Q7D×2, 1 week off, then Q7D×2 again. Sorafenib was used as the positive control in the HepG2 model and was dosed orally at 30 mg/kg with a regimen of QD×5×7 cycles. Taxol was used as the positive control in the H460 model and was administered at 15 mg/kg IV with a regimen of BIW×4. During the experiments, mice were observed daily and body weight was measured twice a week. Tumor burden was monitored twice a week either by caliper measurement (H460) or FluorVivo fluorescence imager (H460-GFP and HepG2-GFP).

The test system of assay [4] is HepG2 orthotopic xenograft. It is filed as in vivo, mice. Conditions: sorafenib 30 mg/kg orally, QD×5×7 cycles; no statistical significance. The protocol: as §2
The test system of another assay is SNU-16 xenograft. Conditions: 5-FU 30 mg/kg IP twice a week. The protocol:
as §1

Like-named read-outs stand apart in the source and are kept apart here.

As to `C[C@]12CCC(=O)C[C@@H]1CC[C@@H]1[C@@H]2CC[C@]2(C)[C@@H](O)CC[C@@H]12` [5^α-DHT, dihydrotestosterone, reference compound], on recombinant human AKR1C3, the Kcat was found to be 0.002 ± 0 s⁻¹ and the Km (commonly the concentration of substrate that gives half-maximal velocity) turned out to be 10.2 ± 0.62 µM.

Consider `C[C@]12CCC(=O)C=C1CC[C@@H]1[C@@H]2CC[C@]2(C)C(=O)CC[C@@H]12` [4-Androstenedione, 4-androstenedione, reference compound], for which, on recombinant human AKR1C3, the Kcat is 0.0012 ± 0.00017 s⁻¹ and the Km is 1.98 ± 0.43 µM.

As for bleomycin [reference compound], in the assay on H460 cells [1] (bleomycin used to induce DNA strand breaks (20 μmol/L, 1 hour)), the tail moment was found to be 35.

Regarding `CCN(CC)CCNC(=O)c1c(C)[nH]c(/C=C2\C(=O)Nc3ccc(F)cc32)c1C` [sunitinib, reference compound], the TGI – broadly, how far tumour growth fell short of that in controls – with A498 xenograft (sunitinib 25 mg/kg daily oral gavage) turned out to be 52%.

With `Nc1ccn([C@@H]2O[C@H](CO)[C@@H](O)C2(F)F)c(=O)n1` [gemcitabine, reference compound], the TGI with A498 xenograft (gemcitabine 80 mg/kg weekly IP for 4 doses) was found to be 19%.

`CC(OP(=O)(N1CC1)N1CC1)c1ccc([N+](=O)[O-])c(Oc2cccc(C(=O)N(C)C)c2)c1` (racemic) [Compound 2870, 1-(3-(3-N,N-dimethylaminocarbonyl)phenoxyl-4-mtrophenyl)-1-ethyl-N,N′-bis(ethylene)phosphoramidate]: the tail moment in the assay on H460 cells [1] (2870 at three concentrations, 2 hours, then bleomycin, decreased from 36, concentration-dependent DNA cross-linking) amounted to 1.6. For the same compound, the IC50 (in general, the concentration that gives 50% inhibition) in the assay on H460 cells [2] turned out to be 4 nM.

In assay [3], `CC(=O)O[C@H]1C(=O)[C@@]2(C)[C@H]([C@H](OC(=O)c3ccccc3)[C@]3(O)C[C@H](OC(=O)[C@H](O)[C@@H](NC(=O)c4ccccc4)c4ccccc4)C(C)=C1C3(C)C)[C@]1(OC(C)=O)CO[C@@H]1C[C@@H]2O` [paclitaxel, reference compound] gave a TGI of 64%.

As to `CNC(=O)c1cc(Oc2ccc(NC(=O)Nc3ccc(Cl)c(C(F)(F)F)c3)cc2)ccn1` [Sorafenib, reference compound], the “tumor growth reduction (TGI)” value in assay [4] is recorded as 52.1%.

Turning to `C[C@@H](OP(=O)(N1CC1)N1CC1)c1ccc([N+](=O)[O-])c(Oc2cccc(C(=O)N(C)C)c2)c1` [Compound 3423, (R)-1-(3-(3-N,N-dimethylaminocarbonyl)phenoxyl-4-mtrophenyl)-1-ethyl-N,N′-bis(ethylene)phosphoramidate], the Kcat on recombinant human AKR1C3 is 0.012 ± 0.00067 s⁻¹. For the same compound, the Km on recombinant human AKR1C3 (read-out: Km) came to 12.9 ± 1.71 µM. Also, the IC50 in the assay on H460 cells [2] worked out at 5 nM.

For the compound `O=c1[nH]cc(F)c(=O)[nH]1` [Compound 5-FU, 5-fluorouracil, reference compound], in the assay on SNU-16 xenograft, the anti-tumor activity entry is given as “no anti-tumor activity”.
